Test system: USP25 phosphorylation at SQ/TQ motif in HEK293T cells
Test: USP25 phosphorylation (p-SQ/TQ) after IR, IP and immunoblot
Assay type: cell-based
Details: IR (10 Gy), Ku55933 (25 µM) for 2 h pretreatment or phosphatase treatment of immunoprecipitated USP25
Method: Figure 4 Regulation of the DDR signaling by USP25. a) HEK293T cells were left untreated or treated with IR (10 Gy) or 5‐Fu (20 uM). USP25 was immunoprecipitated and immunoblotted with phospho‐SQ/TQ (p‐SQ/TQ). b) HEK293T cells were pretreated with Ku55933 (25 µM) for 2 h followed by treatment with IR(10 Gy). After 1 h, USP25 was immunoprecipitated, left untreated, or treated with phosphatase and immunoblotted with p‐SQ/TQ. c) HEK293T cells transfected with USP25^WT and indicated constructs were left treated with IR(10 Gy). USP25 was immunoprecipitated and immunoblotted with p‐SQ/TQ. d) USP25 knockdowm U2OS cells rescued with USP25WT or USP25T523A were treated with IR (2 Gy), and co‐localization USP25 with γH2AX was detected by immunofluorescence. n>80 in each group. e) HEK293T cells were left untreated or treated with 5‐Fu (20 uM). […] The interaction USP25 and MDC1 deletions was detected. g) HEK293T cells transfected with USP25^WT or USP25^T523A were treated with IR, and cell lysates were incubated with GST or GST‐MDC1‐BRCT in vitro. The interaction USP25 and MDC1‐BRCT was detected. h) Non‐phosphorylated or phosphorylated Thr523 peptide was conjugated to beads and incubated with purified GST‐MDC1‐BRCT domain in buffer. […]

In the case of `O=c1cc(-c2cccc3c2Sc2ccccc2S3)oc(N2CCOCC2)c1` [Ku55933], the USP25 phosphorylation is reported as “abolished”.
